According to paper PMC9002265, “A New Series of Strigolactone Analogs Derived From Cinnamic Acids as Germination Inducers for Root Parasitic Plants” (Frontiers in Plant Science, 2022):

Test system: Arabidopsis max4 mutant
Assay: Shoot branching assay, hydroponic culture
Assay type: in vivo
Details: 1 μM in hydroponic culture
Protocol: Sterilized seeds of the Arabidopsis max4-8 mutant were put on the rockwool which was soaked in Noren’s hydroponic solution ([Noren et al., 2004]) and cultured at 22°C for 14 days under LED light (105 μmol/m^2/s) with a 16 h light/8 h dark photoperiod. Seedlings were transferred to a plastic pot containing 800 ml of hydroponic culture and grown under the same conditions for additional 15 or 16 days. Test compounds were dissolved in acetone and added to hydroponic culture. The final concentration of test compounds was 1 or 5 μM and acetone was adjusted to 0.01% (v/v). The hydroponic culture was renewed after 7 days. The number of rosette branches (>5 mm) was counted. In the experience at 5 μM concentration, fresh weight of shoot was also measured to evaluate the side effects of tested compounds.

CC1=CC(O/C=C2\CCOC2=O)OC1=O (stereo not shown) [GR5]
shoot branching inhibition of max4: clearly inhibited shoot branching
